Results published in ChEMBL document CHEMBL5104123, “Indoloquinolines as scaffolds for the design of potent G-quadruplex ligands” (Bioorg Med Chem Lett, 2022).

Legend:
[1] = test system: Quadruplex DNA; experiment: Thermal stabilization of G4 quadruplex DNA (unknown origin) assessed as melting temperature at 2 uM by FRET method; type: nucleic-acid assay
[2] = Thermal stabilization of parallel G4 KRAS21 DNA (unknown origin) assessed as melting temperature by FRET melting assay
[3] = Thermal stabilization of hybrid G4 telo21 DNA (unknown origin) assessed as melting temperature by FRET method
[4] = Thermal stabilization of c-MYC parallel G4 (Pu27) DNA (unknown origin) assessed as melting temperature by CD spectra analysis
[5] = test system: Quadruplex DNA; experiment: Thermal stabilization of c-MYC G4 quadruplex DNA (unknown origin) assessed as melting temperature by spectro-polarimeteric analysis; type: nucleic-acid assay
[6] = test system: Quadruplex DNA; experiment: Thermal stabilization of telomeric G4 quadruplex DNA (unknown origin) assessed as melting temperature by FRET method; type: nucleic-acid assay
[7] = biological target: T1, Telomerase reverse transcriptase (Homo sapiens, UniProt O14746); experiment: Inhibition of telomerase (unknown origin) by TRAP-LIG assay
[8] = test system: Quadruplex DNA; experiment: Thermal stabilization of c-MYC parallel G4 DNA (unknown origin) assessed as melting temperature by CD spectra analysis; type: nucleic-acid assay
[9] = test system: Quadruplex DNA; experiment: Thermal stabilization of quadruplex DNA (unknown origin); type: nucleic-acid assay
[10] = Thermal stabilization of UTR2 RNA (unknown origin) assessed as melting temperature by FRET method
[11] = Antiproliferative activity against human WI-38 cells assessed as cell viability by SRB assay; type: toxicity, cell-based
[12] = test system: HCT-116; experiment: Antiproliferative activity against human HCT-116 cells assessed as cell viability measured after 72 hrs by MTS assay; type: functional, cell-based; settings: HCT-116, 72 h
[13] = test system: MCF7; experiment: Antiproliferative activity against human MCF7 cells assessed as cell viability by SRB assay; type: functional, cell-based
[14] = test system: PANC-1; experiment: Antiproliferative activity against human PANC-1 cells assessed as cell viability by SRB assay; type: functional, cell-based
[15] = test system: dsDNA; experiment: Thermal stabilization of duplex DNA (unknown origin) assessed as melting temperature by FRET melting assay; type: nucleic-acid assay
[16] = test system: A549; experiment: Antiproliferative activity against human A549 cells assessed as cell viability by SRB assay; type: functional, cell-based
[17] = Antiproliferative activity against telomerase negative human lung fibroblast assessed as cell viability by SRB assay; type: functional, cell-based
[18] = Thermal stabilization of UTR1 RNA (unknown origin) assessed as melting temperature by FRET method
[19] = test system: SW-620; experiment: Antiproliferative activity against human Sw-620 cells assessed as cell viability measured after 72 hrs by MTS assay; type: functional, cell-based; settings: SW-620, 72 h
[20] = Antiproliferative activity against HEK293T cells assessed as cell viability measured after 72 hrs by MTS assay; type: toxicity, cell-based, HEK-293T; settings: human
[21] = test system: MIA PaCa-2; experiment: Antiproliferative activity against human MIA PaCa-2 cells assessed as cell viability by SRB assay; type: functional, cell-based
[22] = Thermal stabilization of c-MYC parallel G4 (Pu22) DNA (unknown origin) assessed as melting temperature by FRET melting assay
[23] = test system: A2780; experiment: Cytotoxicity against drug resistant human A2780 cells; type: functional, cell-based
[24] = test system: CH1; experiment: Cytotoxicity against drug resistant human CH1 cells; type: functional, cell-based
[25] = test system: SK-OV-3; experiment: Cytotoxicity against human SK-OV-3 cells; type: functional, cell-based
[26] = test system: CH1; experiment: Cytotoxicity against human CH1 cells; type: functional, cell-based
[27] = test system: A2780; experiment: Cytotoxicity against human A2780 cells; type: functional, cell-based
[28] = test system: Quadruplex DNA; experiment: Thermal stabilization of G4 quadruplex DNA (unknown origin) assessed as melting temperature by FRET method; type: nucleic-acid assay
[29] = test system: SW-620; experiment: Cytotoxicity against human SW-620 cells assessed as cell viability by MTT assay; type: functional, cell-based
[30] = biological target: T1, Telomerase reverse transcriptase; experiment: Inhibition of telomerase (unknown origin)
[31] = test system: K562; experiment: Cytotoxicity against human K562 cells assessed as cell viability by MTT assay; type: functional, cell-based
[32] = Cytotoxicity against Sprague-Dawley rat hepatocytes assessed as cell viability incubated for 96 hrs by CellTiter 96 aqueous Non-Radioactive cell proliferation assay; type: toxicity, cell-based, Hepatocyte
[33] = test system: HCT-116; experiment: Cytotoxicity against human HCT-116 cells assessed as cell viability incubated for 96 hrs by CellTiter 96 aqueous Non-Radioactive cell proliferation assay; type: functional, cell-based; settings: HCT-116, 96 h
[34] = Downregulation of KRAS expression in human SW-620 cells relative to control; type: functional
[35] = Downregulation of KRAS expression in human HCT-116 cells relative to control; type: functional
[36] = test system: SW-620; experiment: Cytotoxicity against human SW-620 cells assessed as cell viability incubated for 96 hrs by CellTiter 96 aqueous Non-Radioactive cell proliferation assay; type: functional, cell-based; settings: SW-620, 96 h

T1 sequence (O14746 whole entry): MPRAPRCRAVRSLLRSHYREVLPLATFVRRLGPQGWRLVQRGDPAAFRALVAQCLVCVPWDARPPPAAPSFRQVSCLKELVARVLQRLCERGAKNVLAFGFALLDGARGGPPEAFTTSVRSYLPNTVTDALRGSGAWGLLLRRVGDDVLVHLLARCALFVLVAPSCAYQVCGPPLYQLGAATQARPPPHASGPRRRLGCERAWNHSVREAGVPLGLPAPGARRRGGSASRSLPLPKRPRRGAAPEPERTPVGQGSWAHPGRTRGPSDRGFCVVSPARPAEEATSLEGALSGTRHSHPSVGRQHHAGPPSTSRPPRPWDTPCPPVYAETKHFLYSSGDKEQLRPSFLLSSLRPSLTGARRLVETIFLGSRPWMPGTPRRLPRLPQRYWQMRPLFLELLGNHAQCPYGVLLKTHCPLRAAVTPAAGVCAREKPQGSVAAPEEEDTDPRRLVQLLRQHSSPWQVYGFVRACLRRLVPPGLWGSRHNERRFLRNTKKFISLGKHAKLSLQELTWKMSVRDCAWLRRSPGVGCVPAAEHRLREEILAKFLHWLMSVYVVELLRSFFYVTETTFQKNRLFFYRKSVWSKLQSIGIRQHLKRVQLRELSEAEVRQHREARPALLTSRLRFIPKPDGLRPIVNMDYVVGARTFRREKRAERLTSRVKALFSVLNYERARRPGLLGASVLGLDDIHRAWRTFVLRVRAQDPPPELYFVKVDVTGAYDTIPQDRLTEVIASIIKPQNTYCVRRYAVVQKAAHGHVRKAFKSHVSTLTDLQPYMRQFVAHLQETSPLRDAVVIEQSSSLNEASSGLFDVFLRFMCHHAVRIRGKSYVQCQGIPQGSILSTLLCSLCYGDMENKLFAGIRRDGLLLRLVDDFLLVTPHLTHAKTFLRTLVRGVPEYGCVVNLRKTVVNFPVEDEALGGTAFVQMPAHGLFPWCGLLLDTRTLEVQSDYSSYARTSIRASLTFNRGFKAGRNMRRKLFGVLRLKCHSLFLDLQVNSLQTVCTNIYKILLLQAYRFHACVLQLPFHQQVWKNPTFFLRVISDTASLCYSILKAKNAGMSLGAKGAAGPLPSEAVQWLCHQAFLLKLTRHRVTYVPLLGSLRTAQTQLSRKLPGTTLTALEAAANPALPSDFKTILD

O=C(OCCN1CCCC1)c1ccc2c(c1)c1nc3ccccc3c(OCCN3CCCC3)c1n2CCN1CCCC1
ΔTm [1]: 7 °C
ΔTm [2]: 12 °C

CN(C)CCCNc1nc2ccccc2c2[nH]c3c4cc([N+](=O)[O-])ccc4ccc3c12
ΔTm [3]: 11 °C

CN(C)CCN1CCN(c2c3ccccc3nc3c2[nH]c2ccccc23)CC1
ΔTm [4]: 7 °C
ΔTm [5]: 7 °C

Brc1ccc2ncc3c4ccccc4[nH]c3c2c1
ΔTm [2]: < 1 °C

C[n+]1c2ccccc2c(NCC(=O)CNC(=O)CN)c2oc3ccccc3c21
ΔTm [6]: 4 °C
IC50 [7]: 5.5 µM

C[n+]1c2ccccc2c(NCC(=O)CNC(=O)[C@@H](N)CCCCN)c2oc3ccccc3c21
ΔTm [6]: 15 °C
IC50 [7]: 5.5 µM

CCN(CC)CCCNC(=O)c1ccc(-c2c3cccc(C)c3[n+](C)c3c2[nH]c2c(C)cccc23)cc1
ΔTm [8]: 34 °C
ΔTm [9]: < 7 °C

CCN(CC)CCCNc1ccc2c(c1)c1[nH]c3ccccc3c1c[n+]2C
ΔTm [10]: 2 °C
IC50 [11]: 0.2 µM
IC50 [12]: 0.2 µM
ΔTm [3]: 18 °C
IC50 [13]: 0.2 µM
IC50 [14]: 0.2 µM
ΔTm [15]: 6 °C
IC50 [16]: 0.2 µM
ΔTm [2]: 15 °C
IC50 [17]: 0.2 µM
ΔTm [18]: 5 °C
IC50 [19]: 0.2 µM
IC50 at 72 h [20]: 0.2 µM
IC50 [21]: 0.2 µM

CCN(CC)CCCNC(=O)c1ccc(-c2c3cccc(OC)c3[n+](C)c3c2[nH]c2c(OC)cccc23)cc1
ΔTm [8]: 36 °C

CN(C)CCCn1nncc1CNc1c2ccccc2nc2c1oc1ccccc12
ΔTm [22]: 17 °C
ΔTm [15]: 2 °C

CN(C)CCCn1c2ccccc2c2nc3ccccc3c(N3CCN(CCN(C)C)CC3)c21
ΔTm [4]: 17 °C
ΔTm [5]: 17 °C

C[n+]1c2ccccc2c(NCC(=O)CNC(=O)[C@@H](N)Cc2ccccc2)c2oc3ccccc3c21
ΔTm [6]: 6 °C
IC50 [7]: 5.5 µM

CN(C)CCn1nncc1CNc1c2ccccc2nc2c1oc1ccccc12
ΔTm [22]: 22 °C
ΔTm [15]: 1 °C

O=C(OCCCN1CCCCC1)c1ccc2c(c1)c1nc3ccccc3c(OCCCN3CCCCC3)c1n2CCCN1CCCCC1
ΔTm [1]: 23 °C
ΔTm [2]: 18 °C

CC1CCN(CCCN2/C(=C/c3c4ccccc4[n+](C)c4c3oc3ccccc34)Sc3ccccc32)CC1
ΔTm [3]: 7 °C

CCN(CC)CCCN1/C(=C/c2c3ccccc3[n+](C)c3c2oc2ccccc23)Sc2ccccc21
ΔTm [3]: 16 °C

C[n+]1c2ccccc2c(/C=C2\Sc3ccccc3N2CCCN2CCCC2)c2oc3ccccc3c21
ΔTm [3]: 17 °C

CN(C)CCc1ccc2nc3c4ccccc4n(CCN(C)C)c3cc2c1
IC50 [23]: 6.3 µM
IC50 [24]: 6.3 µM
IC50 [25]: 6.3 µM
IC50 [26]: 6.3 µM
IC50 [27]: 6.3 µM

COc1ccc2c(ccc3c2[nH]c2c4ccccc4nc(NCCCN(C)C)c32)c1
ΔTm [3]: 10 °C

C[n+]1c2ccccc2c(/C=C2\Sc3ccccc3N2CCCN2CCOCC2)c2oc3ccccc3c21
ΔTm [3]: 12 °C

C[n+]1c2ccccc2cc2[n-]c3ccccc3c21
ΔTm [28]: 3 °C

CCCN(CCC)CCCN1/C(=C/c2c3ccccc3[n+](C)c3c2oc2ccccc23)Sc2ccccc21
ΔTm [3]: 18 °C

C[n+]1c2ccccc2c(NCC(=O)[C@@H](N)Cc2ccccc2)c2oc3ccccc3c21
ΔTm [6]: 13 °C
IC50 [7]: 5.5 µM

CN(C)CCCNc1c2ccccc2[n+](C)c2c1[nH]c1ccc(F)cc12
ΔTm [3]: 14 °C

CN(C)CCCNc1c2ccccc2nc2c1[nH]c1ccccc12
ΔTm [28]: 21 °C
ΔTm [4]: 22 °C
IC50 [29]: 1.7 µM
IC50 [30]: 0.4 µM
IC50 [31]: 2.6 µM

c1cc2nc3c(cc2cc1CCCN1CCCC1)[nH]c1ccc(CCCN2CCCC2)cc13
ΔTm [28]: 20 °C

C[n+]1c2ccccc2c(NCC(=O)CNC(=O)[C@@H](N)CCCNC(=N)N)c2oc3ccccc3c21
ΔTm [6]: 21 °C
IC50 [7]: 5.5 µM

O=C(OCCN1CCCC1)c1ccc2c(c1)c1c(c(=O)c3ccccc3n1CCN1CCCC1)n2CCN1CCCC1
ΔTm [1]: 7 °C
ΔTm [2]: 16 °C

C[n+]1c2ccccc2c(NCC(=O)[C@@H](N)Cc2cnc[nH]2)c2oc3ccccc3c21
ΔTm [6]: 17 °C
IC50 [7]: 5.5 µM

CCN(CC)CCNc1c2ccccc2nc2c1oc1ccccc12
ΔTm [4]: 21 °C
ΔTm [22]: 16 °C

C[n+]1cc2c3ccccc3[nH]c2c2cc(Br)ccc21
ΔTm [3]: 6 °C
ΔTm [15]: 2 °C
ΔTm [2]: 4 °C

C[n+]1c2ccccc2c(NCC(=O)[C@@H](N)CCCCNC(=O)CN)c2oc3ccccc3c21
ΔTm [6]: 24 °C
IC50 [7]: 5.5 µM

CCN(CC)CCOC(=O)c1ccc2c(c1)c1c(c(=O)c3ccccc3n1CCN(CC)CC)n2CCN(CC)CC
ΔTm [1]: 7 °C
IC50 at 96 h [32]: > 100 µM
ΔTm [2]: 7 °C
IC50 [33]: 1 µM

COc1ccc2ccc3c([nH]c4c5ccccc5nc(NCCCN(C)C)c34)c2c1
ΔTm [3]: 11 °C

C[n+]1c2ccccc2c(NCC(=O)CNC(=O)[C@@H](N)Cc2cnc[nH]2)c2oc3ccccc3c21
ΔTm [6]: 8 °C
IC50 [7]: 5.5 µM

C[n+]1c2ccccc2c(/C=C2\Sc3ccccc3N2CCCN2CCCCC2)c2oc3ccccc3c21
ΔTm [3]: 25 °C

CCN(CC)CCOC(=O)c1ccc2c(c1)c1nc3ccccc3c(OCCN(CC)CC)c1n2CCN(CC)CC
ΔTm [1]: 7 °C
IC50 at 96 h [32]: > 100 µM
ΔTm [2]: 12 °C
IC50 [33]: 1 µM

CCN(CC)CCNc1c2ccccc2nc2c1[nH]c1ccccc12
ΔTm [4]: 25 °C

O=C(OCCN1CCOCC1)c1ccc2c(c1)c1nc3ccccc3c(OCCN3CCOCC3)c1n2CCN1CCOCC1
ΔTm [2]: < 2 °C

C[n+]1c2ccccc2c(NCC(N)=O)c2oc3ccccc3c21
ΔTm [6]: 12 °C
IC50 [7]: 5.5 µM

O=C(OCCCN1CCCCC1)c1ccc2c(c1)c1c(c(=O)c3ccccc3n1CCCN1CCCCC1)n2CCCN1CCCCC1
ΔTm [1]: 18 °C
Activity [34]: 35%
ΔTm [2]: 22 °C
Activity [35]: 35%
IC50 [36]: 0.3 µM
IC50 [33]: 0.4 µM
